18 molecules from patent US8513260B2, “Pyrazinylpyrazoles” (Bayer CropScience AG, priority 2009, dated 2013) can be followed below.

The subject of data set [1] is caterpillars of the armyworm (Spodoptera frugiperda). The experiment in a line: Spodoptera frugiperda test (SPODFR spray treatment). The format is in vivo. Particulars: maize leaf discs, after 7 days; for efficacy: 500 g/ha; for pest or weed control at 500 g/ha: Spodoptera frugiperda, foliar, 168 h, read-out: efficacy. The procedure: Spodoptera frugiperda Test (SPODFR Spray Treatment) Solvent: 78.0 parts by weight of acetone • • 1.5 parts by weight of dimethylformamide Emulsifier: 0.5 part by weight of alkylaryl polyglycol ether To prepare an appropriate active ingredient preparation, 1 part by weight of active ingredient is mixed with the stated amounts of solvent and emulsifier, and the concentrate is diluted with emulsifier-containing water to the desired concentration. Discs of maize leaves (Zea mays) are sprayed with an active ingredient preparation of the desired concentration and, after drying, populated with caterpillars of the armyworm (Spodoptera frugiperda). After 7 days, the efficacy in % is determined. 100% means that all caterpillars have been killed; 0% means that none of the caterpillars have been killed.

In data set [2] the test system is unfed adult fleas (Ctenocephalides felis). The experiment in a line: Ctenocephalides felis test (CTECFE). The format is in vivo. Particulars: 100 ppm in citrated cow's blood; after 2 days. The procedure: Ctenocephalides felis Test ([…]) Solvent: 1 part by weight of dimethyl sulphoxide For the purpose of preparing an appropriate active ingredient formulation, 10 mg of active ingredient are mixed with 0.5 ml of dimethyl sulphoxide. A portion of the concentrate is diluted with citrated cow's blood and the desired concentration is established. About 20 unfed adult fleas (Ctenocephalides felis) are introduced into a chamber closed at the top and bottom with gauze. A metal cylinder, the bottom of which is closed with Parafilm, is placed onto the chamber. The cylinder contains the blood/active ingredient preparation, which can be imbibed by the fleas through the Parafilm membrane. After 2 days, the kill in % is determined. 100% means that all fleas have been killed; 0% means that none of the fleas have been killed.

For data set [3], the system named is larvae of the mustard beetle (Phaedon cochleariae). Put plainly: Phaedon test (PHAECO spray treatment). Particulars: Chinese cabbage discs, after 7 days; for efficacy: 500 g/ha; for pest or weed control at 500 g/ha: Phaedon cochleariae, 168 h, read-out: efficacy. The format is in vivo. The procedure: Phaedon Test ([…] Spray Treatment) Solvent: 78.0 parts by weight of acetone • • 1.5 parts by weight of dimethylformamide Emulsifier: 0.5 part by weight of alkylaryl polyglycol ether To prepare an appropriate active ingredient preparation, 1 part by weight of active ingredient is mixed with the stated amounts of solvent and emulsifier, and the concentrate is diluted with emulsifier-containing water to the desired concentration. Discs of Chinese cabbage (Brassica pekinensis) are sprayed with an active ingredient preparation of the desired concentration and, after drying, populated with larvae of the mustard beetle (Phaedon cochleariae). After 7 days, the efficacy in % is determined. 100% means that all beetle larvae have been killed; 0% means that none of the beetle larvae have been killed.

Data set [4] relates to Boophilus microplus. Put plainly: Boophilus microplus test (BOOPMI injection). The format is in vivo. Particulars: 20 μg animal; injection into the abdomen; after 7 days, laying of fertile eggs. The procedure:
Boophilus microplus Test (BOOPMI Injection) Solvent: dimethyl sulphoxide To prepare an appropriate active ingredient formulation, 10 mg of active ingredient are mixed with 0.5 ml of solvent and the concentrate is diluted with solvent to the desired concentration. The active ingredient solution is injected into the abdomen (Boophilus microplus), and the animals are transferred into dishes and stored in a climate-controlled room. The efficacy is assessed by laying of fertile eggs. After 7 days, the efficacy in % is determined. 100% means that none of the ticks has laid any fertile eggs.

In data set [5] the test system is adult Musca domestica. The experiment in a line: Musca domestica test. The format is in vivo. As to conditions: 100 ppm; after 2 days. The procedure:
Musca domestica Test Solvent: dimethyl sulphoxide To prepare an appropriate active ingredient formulation, 10 mg of active ingredient are mixed with 0.5 ml of dimethyl sulphoxide and the concentrate is diluted with water to the desired concentration. Vessels containing a sponge treated with the active ingredient preparation of the desired concentration are populated with adult Musca domestica. After 2 days, the kill in % is determined. 100% means that all of the flies have been killed; 0% means that none of the flies have been killed.

The test system of data set [6] is red spider mite (Tetranychus urticae). Put plainly: Tetranychus test, OP-resistant (TETRUR spray treatment). The format is in vivo. As to conditions: 500 g/ha, bean leaf discs, after 6 days; for pest or weed control at 500 g/ha: Tetranychus urticae, foliar, 144 h, read-out: efficacy. The procedure:
Tetranychus Test, OP-Resistant (TETRUR Spray Treatment)
Solvent: 78.0 parts by weight of acetone • • 1.5 parts by weight of dimethylformamide
Emulsifier: 0.5 part by weight of alkylaryl polyglycol ether
To prepare an appropriate active ingredient preparation, 1 part by weight of active ingredient is mixed with the stated amounts of solvent and emulsifier, and the concentrate is diluted with emulsifier-containing water to the desired concentration. Discs of bean leaves (Phaseolus vulgaris) infested by all stages of the red spider mite (Tetranychus urticae) are sprayed with an active ingredient preparation of the desired concentration. After 6 days, the efficacy in % is determined. 100% means that all spider mites have been killed; 0% means that none of the spider mites have been killed.

The subject of data set [7] is green peach aphid (Myzus persicae). Put plainly: Myzus test (MYZUPE spray treatment). The format is in vivo. As to conditions: Chinese cabbage discs, after 6 days; for pest or weed control at 500 g/ha: Myzus persicae, 144 h, read-out: efficacy; for efficacy: 500 g/ha. The procedure: Myzus Test (MYZUPE Spray Treatment) Solvent: 78 parts by weight of acetone • • 1.5 parts by weight of dimethylformamide Emulsifier: 0.5 part by weight of alkylaryl polyglycol ether To prepare an appropriate active ingredient preparation, 1 part by weight of active ingredient is mixed with the stated amounts of solvent and emulsifier, and the concentrate is diluted with emulsifier-containing water to the desired concentration. Discs of Chinese cabbage (Brassica pekinensis) infested by all stages of the green peach aphid (Myzus persicae) are sprayed with an active ingredient preparation of the desired concentration. After 6 days, the efficacy in % is determined. 100% means that all of the aphids have been destroyed; 0% means that none of the aphids have been destroyed.

The nature of data set [8]: logP by HPLC on reversed-phase columns (C 18), EEC Directive 79/831 Annex V.A8. Type of data set: physicochemical. As to conditions: reversed-phase C18 HPLC column, pH 2.7, * LC-MS, acidic range pH 2.7, 0.1% aqueous formic acid and acetonitrile; read-out: log P. The source says: [table] The calibration is effected with unbranched alkan-2-ones (having 3 to 16 carbon atoms) with known logP values (logP values determined on the basis of the retention times by linear interpolation between two successive alkanones).

`COc1cc(-c2c(C(F)(F)F)nn(-c3nccnc3OC)c2N)cc(C(F)(F)F)c1OC` [Ex. 89]: the efficacy in data set [1], in data set [3] and in data set [4] was 100% each time. Further, the “efficacy (kill)” value in data set [2] is 100%; in data set [5], 80%.

`CCOc1nccnc1-n1nc(C(F)(F)F)c(-c2cc(Cl)cc(C(F)(F)F)c2)c1N` [Ex. 12]: the “efficacy (kill)” value in data set [2] is 90%; in data set [5] it was 100%. For the same molecule, the results for the efficacy in data set [3], in data set [6] and in data set [4] were 100%, 90% and 100%, respectively.

On to `CCOc1nccnc1-n1nc(C(F)(F)F)c(-c2cc(C#N)c3c(c2)OCO3)c1N` [Ex. 172], for which the pest or weed control at 500 g/ha in data set [1], in data set [3], in data set [7] and in data set [6] was 100% throughout. Also, the chromatographic logP in data set [8] came to 3.01.

For the molecule `COc1nccnc1-n1nc(C(F)(F)F)c(-c2cc(Cl)cc(C(F)(F)F)c2)c1N` [Ex. 10], the “efficacy (kill)” value is reported as 90% in data set [2] and 100% in data set [5]. Also, in data set [4], the efficacy is listed as 100%.

As for `C=Cc1nn(-c2nccnc2OC)c(N)c1-c1cc(Cl)cc(C(F)(F)F)c1` [Ex. 9], the efficacy in data set [1], in data set [3], in data set [7], in data set [6] and in data set [4] was 100% in each case.

Consider `COc1nccnc1-n1nc(C(F)(F)F)c(-c2cc(Cl)cc(Cl)c2)c1N` [Ex. 6], for which the efficacy in data set [1] was 83%; in data set [3] it was 100%; in data set [4], 100%. Moreover, the “efficacy (kill)” value in data set [2] came to 90%; in data set [5] it was 80%.

With `COc1nccnc1-n1nc(C(F)(F)F)c(-c2cc(Br)c3c(c2)OCO3)c1N` [Ex. 74], the pest or weed control at 500 g/ha in data set [1] came to 100%; in data set [3] it was 100%; in data set [7] it was 90%; in data set [6] it was 90%. For the same molecule, the chromatographic logP in data set [8] is 3.18.

Regarding `COc1nccnc1-n1nc(C(F)(F)F)c(-c2cc(Cl)c3c(c2)OCCCO3)c1N` [Ex. 136], the “efficacy (kill)” value in data set [2] is listed as 100%. Moreover, the efficacy in data set [3] and in data set [4] was 100% each time.

Regarding `CCOc1nccnc1-n1nc(CC)c(-c2cc(Cl)c3c(c2)OCO3)c1N` [Ex. 170], the pest or weed control at 500 g/ha in data set [1], in data set [3], in data set [7] and in data set [6] was 100% each time. Also, the chromatographic logP in data set [8] stood at 2.96.

As for `COc1nccnc1-n1nc(C(F)(F)C(F)(F)C(F)(F)F)c(-c2cc(Cl)cc(C(F)(F)F)c2)c1N` [Ex. 46], the efficacy in data set [1] worked out at 100%; in data set [3], 100%; in data set [7], 80%; in data set [6], 80%; in data set [4] it was 100%. Further, the “efficacy (kill)” value in data set [2] was determined as 80%.

Consider `COc1nccnc1-n1nc(C(F)(F)F)c(-c2cc(Cl)c3c(c2)COCO3)c1N` [Ex. 135], for which the efficacy was 80% in data set [1], 100% in data set [3] and 100% in data set [4]. Besides, in data set [2], the “efficacy (kill)” value is given as 100%.

For `COc1nccnc1-n1nc(C(F)(F)Cl)c(-c2cc(Cl)c3c(c2)OCO3)c1N` [Ex. 169], the pest or weed control at 500 g/ha in data set [1], in data set [3], in data set [7] and in data set [6] was 100% throughout. Further, in data set [8], the chromatographic logP is 3.26.

In the case of `COc1ccc(CNc2c(-c3cc(Cl)cc(C(F)(F)F)c3)c(C(F)(F)F)nn2-c2nccnc2OC)cc1` [Ex. 41], the “efficacy (kill)” value in data set [2] was found to be 80%. In addition, the efficacy in data set [3] came to 100%; in data set [7], 90%.

As for `COc1nccnc1-n1nc(C(F)(F)C(F)(F)F)c(-c2cc(F)cc(C(F)(F)F)c2)c1N` [Ex. 21], the efficacy in data set [1], in data set [3], in data set [7], in data set [6] and in data set [4] was 100% in each case. Further, the “efficacy (kill)” value in data set [5] amounted to 100%.

Regarding `COc1nccnc1-n1nc(C(F)(F)F)c(-c2cc(Br)c3c(c2)OCCCO3)c1N` [Ex. 131], the efficacy in data set [1], in data set [3], in data set [6] and in data set [4] was 100% in each case. In addition, the “efficacy (kill)” value in data set [2] and in data set [5] was 100% each time.

Regarding `COc1nccnc1-n1nc(C(C)C)c(-c2cc(Cl)c3c(c2)OCO3)c1N` [Ex. 77], the pest or weed control at 500 g/ha in data set [1], in data set [3], in data set [7] and in data set [6] was 100% in each case. Besides, the chromatographic logP in data set [8] is 2.96.

As to `CCOc1nccnc1-n1nc(C(F)(F)F)c(-c2cc(Cl)c3c(c2)OCO3)c1N` [Ex. 171], the pest or weed control at 500 g/ha in data set [1], in data set [3], in data set [7] and in data set [6] was 100% each time. The chromatographic logP in data set [8] came to 3.48.

In the case of `CCOc1nccnc1-n1nc(C(F)(F)F)c(-c2cc(F)c3c(c2)OCO3)c1N` [Ex. 175], the pest or weed control at 500 g/ha in data set [1], in data set [3], in data set [7] and in data set [6] was 100% in each case. The chromatographic logP in data set [8] was determined as 3.27.
